Test results as given in the supplement of paper PMC11451515.

System: NOMO1
Test: cell viability relative to DMSO control; higher = less cytotoxic
Details: 48 h
Procedure, shortened: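 Viability is a per-plate percentage relative to DMSO wells, with cell-free wells as background. CellTiter-Glo One luminescence was read after 48 h at 37°C on 1536-well plates (5 μl) of NOMO1 or SEM (500 cells/well) or P12-Ichikawa (1000 cells/well) leukemia cells. The cells had been adapted for at least four passages in each medium and pin-dosed with library compounds in DMSO from 47 μM to 0.79 nM in 11 threefold steps.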

[1] = RPMI 5 mM glucose + 10% FBS, 0.000781 µM
[2] = RPMI 5 mM glucose + 10% FBS, 0.00234 µM
[3] = RPMI 5 mM glucose + 10% FBS, 0.00702 µM
[4] = RPMI 5 mM glucose + 10% FBS, 0.0211 µM
[5] = RPMI 5 mM glucose + 10% FBS, 0.0632 µM
[6] = RPMI 5 mM glucose + 10% FBS, 0.19 µM
[7] = RPMI 5 mM glucose + 10% FBS, 0.569 µM
[8] = RPMI 5 mM glucose + 10% FBS, 1.71 µM
[9] = RPMI 5 mM glucose + 10% FBS, 5.12 µM
[10] = RPMI 5 mM glucose + 10% FBS, 15.4 µM
[11] = RPMI 5 mM glucose + 10% FBS, 46.1 µM
[12] = RPMI 5 mM glucose + 10% dialyzed FBS, 0.000781 µM
[13] = RPMI 5 mM glucose + 10% dialyzed FBS, 0.00234 µM
[14] = RPMI 5 mM glucose + 10% dialyzed FBS, 0.00702 µM
[15] = RPMI 5 mM glucose + 10% dialyzed FBS, 0.0211 µM
[16] = RPMI 5 mM glucose + 10% dialyzed FBS, 0.0632 µM
[17] = RPMI 5 mM glucose + 10% dialyzed FBS, 0.19 µM
[18] = RPMI 5 mM glucose + 10% dialyzed FBS, 0.569 µM
[19] = RPMI 5 mM glucose + 10% dialyzed FBS, 1.71 µM
[20] = RPMI 5 mM glucose + 10% dialyzed FBS, 5.12 µM
[21] = RPMI 5 mM glucose + 10% dialyzed FBS, 15.4 µM
[22] = RPMI 5 mM glucose + 10% dialyzed FBS, 46.1 µM

Compound | cell viability [1] [%] | cell viability [2] [%] | cell viability [3] [%] | cell viability [4] [%] | cell viability [5] [%] | cell viability [6] [%] | cell viability [7] [%] | cell viability [8] [%] | cell viability [9] [%] | cell viability [10] [%] | cell viability [11] [%] | cell viability [12] [%] | cell viability [13] [%] | cell viability [14] [%] | cell viability [15] [%] | cell viability [16] [%] | cell viability [17] [%] | cell viability [18] [%] | cell viability [19] [%] | cell viability [20] [%] | cell viability [21] [%] | cell viability [22] [%]
CN1[C@@H]2CC[C@H]1CC(OC(=O)c1c[nH]c3ccccc13)C2 (stereo partly specified) | 115 | 125 | 120 | 114 | 129 | 112 | 106 | 117 | 124 | 114 | 99.3 | 119 | 127 | 119 | 107 | 109 | 115 | 113 | 118 | 119 | 104 | 94.9
C[C@H](NC(=O)/C(C#N)=C/c1cccc(Br)n1)c1ccccc1 | 104 | 104 | 123 | 112 | 119 | 98.1 | 103 | 87.7 | 19 | 8.24 | 7.32 | 99.5 | 115 | 109 | 114 | 107 | 129 | 115 | 93.8 | 38.8 | 8.68 | 6.9
CN\1C(=O)/C(=C(\N=C1N2CCCC[S+]2([O-])=O)C(=O)NCC3=CC=C(F)C=C3)O | 113 | 105 | 116 | 124 | 116 | 107 | 112 | 123 | 115 | 113 | 106 | 123 | 116 | 119 | 123 | 111 | 119 | 113 | 107 | 118 | 105 | 99.2
